System: Hs578T multi-cell spheroids, viability
Experiment: Anticancer human tumor Hs578T cell line growth inhibition [IpAb];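 further: drug exposure lasted 7 days before readout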
Conditions: for IC50: curve of first compound; for viability, T/C: stronger effect = lower value
Source text: Combinatorial screen of targeted agents with ipatasertib and abemaciclib in multi-cell type tumor spheroids
A high-throughput screen of multi-cell type tumor spheroids was designed to identify active combinations of targeted small molecules and ipatasertib or abemaciclib. Complex spheroids include a stromal component modeled by human endothelial cells (HUVEC) and fibroblasts modeled by human mesenchymal stem cells (MSCs). The concentration ranges selected for each drug and investigational agent were based upon clinically achievable concentrations if the clinical Cmax of the agent was known.
Compounds. The drugs and investigational agents: ipatasertib (NSC767898), abemaciclib(NSC768073), selumetinib (NSC741078), trametinib (758246), adavosertib (NSC754352), everolimus (NSC733504), sapanisertib (NSC764658), vemurafenib (NSC761431), venetoclax (NSC766270), copanlisib (NSC809693), apelisib (NSC765974), palbociblib (NSC758247), vemurafenib (NSC761431), dabrafenib (NSC764134), ravoxertinib (NSC781343), BMS-387032 (NSC767048), sotorasib (NSC818433), talazoparib (NSC767125) and afursertib (NSC778305), were obtained from the National Cancer Institute (NCI) Developmental Therapeutics Program Chemical Repository. The FDA-approved anticancer drug set is available from the NCI Developmental Therapeutics Program. […] The stock solutions were prepared in dimethyl sulfoxide (DMSO, Sigma-Aldrich, St. Louis, MO, cat. D2650) at 800-fold the tested concentration and stored at -70 degrees C prior to their use. All drugs and investigational agents were tested over a range starting from a high concentration at or near the clinical Cmax and decreasing in half-log increments. If the clinical Cmax for an agent had not been determined, the highest concentration tested was 10 microM.
NCI60 Cell Culture. NCI60 cell lines were obtained from the NCI Developmental Therapeutics Program Tumor Repository. For each lot of cells, the Repository performed Applied Biosystems AmpFLSTR Identifiler testing with PCR amplification to confirm consistency with the published Identifier STR profile for each cell line. Cells were kept in continuous culture for no more than 20 passages. The optimal seeding densities for each of the cell lines at each time point assessed were determined prior to performing the concentration response studies. Briefly, the NCI60 human tumor lines were grown as monolayers in RPMI 1640 medium supplemented with 10% FBS and 2 mmol/L L-glutamine.
An additional 9 lines were from the NCI60 cell line panel including MDA-MB-231 breast carcinoma, MDA-MB-468 breast carcinoma, MCF7 breast carcinoma, Hs578T breast carcinoma, MALME-3M melanoma, SK-MEL-2 melanoma, SK-OV-3 ovarian carcinoma, DU-145 prostate carcinoma, PC-3 prostate carcinoma, all cell lines along with major genetic alterations are listed on Table 2. Pooled donor human umbilical vein endothelial cells (HUVEC, Lonza, cat. CC-2519) and human mesenchymal stem cells (hMSC, Lonza, cat. PT-2501) were purchased from Lonza (Walkersville, MD).
PDMR cell lines were grown in complete medium (DC medium): Dulbecco's modified Eagle's medium (DMEM)/F12 supplemented with 5% fetal bovine serum (FBS), 2 mM L-glutamine, 100 U/mL penicillin and 100 µg/ml streptomycin, 0.4 µg/ml hydrocortisone, 10 ng/ml epidermal growth factor (EGF) recombinant human protein, 24 µg/mL adenine, and 0.1 mg/mL primocin. During culture from frozen stock vials, PDMR cells were cultured in the same medium containing 10 µM Y-27632 (see Table 3). The PDCs were cultured in complete DMEM/F12 media without 10 microM Y-27632 dihydrochloride for at least two passages prior to the screen. The pooled donor HUVEC and hMSC were cultured in endothelial cell growth medium 2 (PromoCell, Heidelberg, Germany, cat. C-22011) and mesenchymal stem cell growth medium 2 (PromoCell, cat. C-28009), respectively. For all experiments, HUVEC and hMSC were used at passages </=5.
[…]

[1] = second compound 0.1 µM, first compound 0.0316 µM
[2] = second compound 0.1 µM, first compound 0.1 µM
[3] = second compound 0.1 µM, first compound 0.316 µM
[4] = second compound 0.1 µM, first compound 1 µM
[5] = second compound 0.1 µM, first compound 3.16 µM
[6] = second compound 0.1 µM, first compound 10 µM
[7] = second compound 0.316 µM, first compound 0.0316 µM
[8] = second compound 0.316 µM, first compound 0.1 µM
[9] = second compound 0.316 µM, first compound 0.316 µM
[10] = second compound 0.316 µM, first compound 1 µM
[11] = second compound 0.316 µM, first compound 3.16 µM
[12] = second compound 0.316 µM, first compound 10 µM
[13] = second compound 1 µM, first compound 0.0316 µM
[14] = second compound 1 µM, first compound 0.1 µM
[15] = second compound 1 µM, first compound 0.316 µM
[16] = second compound 1 µM, first compound 1 µM
[17] = second compound 1 µM, first compound 3.16 µM
[18] = second compound 1 µM, first compound 10 µM
[19] = second compound 3.16 µM, first compound 0.0316 µM
[20] = second compound 3.16 µM, first compound 0.1 µM
[21] = second compound 3.16 µM, first compound 0.316 µM
[22] = second compound 3.16 µM, first compound 1 µM
[23] = second compound 3.16 µM, first compound 3.16 µM
[24] = second compound 3.16 µM, first compound 10 µM
[25] = second compound 10 µM, first compound 0.0316 µM
[26] = second compound 10 µM, first compound 0.1 µM
[27] = second compound 10 µM, first compound 0.316 µM
[28] = second compound 10 µM, first compound 1 µM
[29] = second compound 10 µM, first compound 3.16 µM
[30] = second compound 10 µM, first compound 10 µM

| Structure (SMILES) | IC50 (second compound 0.1 µM) | IC50 (second compound 0.316 µM) | IC50 (second compound 1 µM) | IC50 (second compound 3.16 µM) | IC50 (second compound 10 µM) | viability, T/C [1] | viability, T/C [2] | viability, T/C [3] | viability, T/C [4] | viability, T/C [5] | viability, T/C [6] | viability, T/C [7] | viability, T/C [8] | viability, T/C [9] | viability, T/C [13] | viability, T/C [14] | viability, T/C [19] | viability, T/C [20] | viability, T/C [25] | viability, T/C [26] | also measured |
| --- | --- | --- | --- | --- | --- | --- | --- | --- | --- | --- | --- | --- | --- | --- | --- | --- | --- | --- | --- | --- | --- |
| C=CCn1c(=O)c2cnc(Nc3ccc(N4CCN(C)CC4)cc3)nc2n1-c1cccc(C(C)(C)O)n1 + CC(C)NCC(C(=O)N1CCN(c2ncnc3c2C(C)CC3O)CC1)c1ccc(Cl)cc1 | 280 nM | 221 nM | 129 nM | 39.4 nM | < 31.6 nM | 103% | 74.2% | 49.4% | 26.9% | 20.5% | 19.2% | 74.1% | 62.9% | 44.3% | 64.9% | 54.7% | 51.2% | 44.4% | 49.2% | 37.2% | viability, T/C [10]: 27.6%; viability, T/C [11]: 22.8%; viability, T/C [12]: 16.7%; viability, T/C [15]: 35.7%; viability, T/C [16]: 25.7%; viability, T/C [17]: 25.8%; viability, T/C [18]: 17.6%; viability, T/C [21]: 29.1%; viability, T/C [22]: 23.7%; viability, T/C [23]: 20.5%; viability, T/C [24]: 11.9%; viability, T/C [27]: 22.6%; viability, T/C [28]: 21%; viability, T/C [29]: 16.3%; viability, T/C [30]: 5.72% |
| CC(C)n1nc(-c2ccc3oc(N)nc3c2)c2c(N)ncnc21 + CC(C)NCC(C(=O)N1CCN(c2ncnc3c2C(C)CC3O)CC1)c1ccc(Cl)cc1 | 5.88 nM | 3.52 nM | 1.38 nM | < 0.316 nM | < 0.316 nM | 19.9% | 15.5% |  |  |  |  | 14.2% | 11.8% |  | 14% | 12.2% | 12.2% | 10.4% | 11.4% | 8.97% | viability, T/C (second compound 0.1 µM, first compound 0.000316 µM): 94.8%; viability, T/C (second compound 0.1 µM, first compound 0.001 µM): 86.6%; viability, T/C (second compound 0.1 µM, first compound 0.00316 µM): 63.7%; viability, T/C (second compound 0.1 µM, first compound 0.01 µM): 38.6%; viability, T/C (second compound 0.316 µM, first compound 0.000316 µM): 79.2%; viability, T/C (second compound 0.316 µM, first compound 0.001 µM): 72.4%; viability, T/C (second compound 0.316 µM, first compound 0.00316 µM): 50.8%; viability, T/C (second compound 0.316 µM, first compound 0.01 µM): 30.7%; viability, T/C (second compound 1 µM, first compound 0.000316 µM): 61.7%; viability, T/C (second compound 1 µM, first compound 0.001 µM): 55.3%; viability, T/C (second compound 1 µM, first compound 0.00316 µM): 37.2%; viability, T/C (second compound 1 µM, first compound 0.01 µM): 20.7%; viability, T/C (second compound 3.16 µM, first compound 0.000316 µM): 47.4%; viability, T/C (second compound 3.16 µM, first compound 0.001 µM): 41.4%; viability, T/C (second compound 3.16 µM, first compound 0.00316 µM): 28.4%; viability, T/C (second compound 3.16 µM, first compound 0.01 µM): 17.3%; viability, T/C (second compound 10 µM, first compound 0.000316 µM): 48.1%; viability, T/C (second compound 10 µM, first compound 0.001 µM): 35.9%; viability, T/C (second compound 10 µM, first compound 0.00316 µM): 25.4%; viability, T/C (second compound 10 µM, first compound 0.01 µM): 12% |
| CC1(C)CCC(CN2CCN(c3ccc(C(=O)NS(=O)(=O)c4ccc(NCC5CCOCC5)c([N+](=O)[O-])c4)c(Oc4cnc5[nH]ccc5c4)c3)CC2)=C(c2ccc(Cl)cc2)C1 + CC(C)NCC(C(=O)N1CCN(c2ncnc3c2C(C)CC3O)CC1)c1ccc(Cl)cc1 | 5570 nM | 5150 nM | 3840 nM | 1560 nM | < 31.6 nM | 97.1% | 96.7% | 101% | 95.3% | 83% | 15.7% | 79.9% | 90.2% | 89.2% | 66.9% | 66.5% | 53.3% | 54.3% | 46.7% | 46.9% | viability, T/C [10]: 81.9%; viability, T/C [11]: 77.1%; viability, T/C [12]: 13.5%; viability, T/C [15]: 66.4%; viability, T/C [16]: 63%; viability, T/C [17]: 58.2%; viability, T/C [18]: 11.1%; viability, T/C [21]: 51.3%; viability, T/C [22]: 53.4%; viability, T/C [23]: 45.9%; viability, T/C [24]: 10.2%; viability, T/C [27]: 46.8%; viability, T/C [28]: 42.3%; viability, T/C [29]: 40.9%; viability, T/C [30]: 5.27% |
| CCCS(=O)(=O)Nc1ccc(F)c(C(=O)c2c[nH]c3ncc(-c4ccc(Cl)cc4)cc23)c1F + CC(C)NCC(C(=O)N1CCN(c2ncnc3c2C(C)CC3O)CC1)c1ccc(Cl)cc1 | 4680 nM | 3600 nM | 3170 nM | 1350 nM | < 31.6 nM | 97.9% | 95.8% | 92.3% | 89.9% | 71.2% | 9.19% | 94.8% | 83.4% | 88.3% | 69.2% | 71.2% | 56.5% | 57.8% | 48.3% | 45.1% | viability, T/C [10]: 82.6%; viability, T/C [11]: 55.3%; viability, T/C [12]: 7.94%; viability, T/C [15]: 74.1%; viability, T/C [16]: 68.1%; viability, T/C [17]: 50.1%; viability, T/C [18]: 4.41%; viability, T/C [21]: 51%; viability, T/C [22]: 55.3%; viability, T/C [23]: 35.8%; viability, T/C [24]: 2.97%; viability, T/C [27]: 49.5%; viability, T/C [28]: 38.6%; viability, T/C [29]: 27.5%; viability, T/C [30]: 0.51% |

— PubChem BioAssay AID2060331 (Molecular Pharmacology Branch, DTP, NCI, 2025)
